Experimental data: patent US20260241012A1, “1,8-NAPHTHYRIDIN-2-ONE HETEROBIFUNCTIONAL BCL6 DEGRADERS” (Treeline Biosciences, Inc., priority 2022, published 2026)

Biological target: T1, N-terminal HiBiT tagged BCL6 (Homo sapiens, UniProt P41182)
T1 construct: expressed in transfected cells; host or cells: HT1080 (ATCC CCL-121), stably transduced with lentivirus pLV-UBC-N-HiBiT-BCL6-PGK-puro
Assay: HiBiT based degradation assay
Type: cell-based
Conditions: HT1080 cells expressing N-terminal HiBiT tagged BCL6, 5 hours of incubation; for Ymin (5 hr): BCL6 degradation normalized with DMSO control; for DC50: four-parameter logistic model, read-out: EC50 (5 hr)
In short: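 Degradation measured by luminescence from the Nano-Glo HiBiT lytic reagent (15 min, room temperature), normalized to DMSO controls and fitted to a four-parameter curve.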

Compound | Ymin (5 hr) | DC50
CNC(=O)COc1cc2cc(Nc3nc(N4CCN(CC5CCN(c6ccc7c(C8CCC(=O)NC8=O)nn(C)c7c6)CC5)[C@H](CO)C4)ncc3Cl)cnc2n(C(C)C)c1=O (stereo partly drawn) [Compound 153b, 2-((6-((5-chloro-2-((3S)-4-((1-(3-(2,6-dioxopiperidin-3-yl)-1-methyl-1H-indazol-6-yl)piperidin-4-yl)methyl)-3-(hydroxymethyl)piperazin-1-yl)pyrimidin-4-yl)amino)-1-isopropyl-2-oxo-1,2-dihydro-1,8-naphthyridin-3-yl)oxy)-N-methylacetamide] | +++ (30% ≤ Ymin < 50%) | < 0.01 µM
CNC(=O)COc1cc2cc(Nc3nc(N4CCN([C@H](C)C5CCN(c6cccc7c(C8CCC(=O)NC8=O)nn(C)c67)CC5)CC4)ncc3Cl)cnc2n(C(C)C)c1=O (single isomer, unassigned) [Compound 195b] | +++ (30% ≤ Ymin < 50%) | 0.01 to 0.1 µM
CNC(=O)COc1cc2cc(Nc3nc(N4C[C@H](C)N(CC5CCN(c6cccc7c(C8CCC(=O)NC8=O)nn(C)c67)CC5)C[C@H]4C)ncc3Cl)cnc2n(C(C)C)c1=O (stereo partly drawn) [Compound 179a, 2-[[6-[[5-chloro-2-[(2R,5S)-4-[[1-[3-(2,6-dioxo-3-piperidyl)-1-methyl-indazol-7-yl]-4-piperidyl]methyl]-2,5-dimethyl-piperazin-1-yl]pyrimidin-4-yl]amino]-1-isopropyl-2-oxo-1,8-naphthyridin-3-yl]oxy]-N-methyl-acetamide] | +++ (30% ≤ Ymin < 50%) | 0.1 to 1 µM
CNC(=O)COc1cc2cc(Nc3nc(N4CC5(CC[C@@H](Nc6ccc7c(C8CCC(=O)NC8=O)nn(C)c7c6)[C@H](C)C5)C4)ncc3Cl)cnc2n(C(C)C)c1=O (relative stereo) [Compound 180d, rel-2-((6-((5-chloro-2-((6R,7R)-7-((3-(2,6-dioxopiperidin-3-yl)-1-methyl-1H-indazol-6-yl)amino)-6-methyl-2-azaspiro[3.5]nonan-2-yl)pyrimidin-4-yl)amino)-1-isopropyl-2-oxo-1,2-dihydro-1,8-naphthyridin-3-yl)oxy)-N-methylacetamide] | ++++ (Ymin < 30%) | < 0.01 µM
CNC(=O)COc1cc2cc(Nc3nc(N4CC[C@H](CN5CCN(c6ccc7c(C8CCC(=O)NC8=O)nn(C)c7c6)CC5)[C@H](C)C4)ncc3Cl)cnc2n(C(C)C)c1=O (stereo partly drawn) [Compound 176a, 2-((6-((5-chloro-2-((3S,4S)-4-((4-(3-(2,6-dioxopiperidin-3-yl)-1-methyl-1H-indazol-6-yl)piperazin-1-yl)methyl)-3-methylpiperidin-1-yl)pyrimidin-4-yl)amino)-1-isopropyl-2-oxo-1,2-dihydro-1,8-naphthyridin-3-yl)oxy)-N-methylacetamide] | +++ (30% ≤ Ymin < 50%) | < 0.01 µM
CNC(=O)COc1cc2cc(Nc3nc(N4CCN(CC5CCN(c6cccc7c(C8CCC(=O)NC8=O)nn(C)c67)CC5)[C@@H](CO)C4)ncc3Cl)cnc2n(C(C)C)c1=O (stereo partly drawn) [Compound 146b, 2-((6-((5-chloro-2-((3R)-4-((1-(3-(2,6-dioxopiperidin-3-yl)-1-methyl-1H-indazol-7-yl)piperidin-4-yl)methyl)-3-(hydroxymethyl)piperazin-1-yl)pyrimidin-4-yl)amino)-1-isopropyl-2-oxo-1,2-dihydro-1,8-naphthyridin-3-yl)oxy)-N-methylacetamide] | ++++ (Ymin < 30%) | 0.01 to 0.1 µM
CNC(=O)COc1cc2cc(Nc3nc(N4CCC(CN5CCN(c6cccc7c(C8CCC(=O)NC8=O)nn(C)c67)[C@@H](C)C5)CC4)ncc3Cl)cnc2n(C(C)C)c1=O (stereo partly drawn) [Compound 169a, 2-((6-((5-chloro-2-(4-(((3S)-4-(3-(2,6-dioxopiperidin-3-yl)-1-methyl-1H-indazol-7-yl)-3-methylpiperazin-1-yl)methyl)piperidin-1-yl)pyrimidin-4-yl)amino)-1-isopropyl-2-oxo-1,2-dihydro-1,8-naphthyridin-3-yl)oxy)-N-methylacetamide] | ++++ (Ymin < 30%) | < 0.01 µM
CNC(=O)COc1cc2cc(Nc3nc(N4CC5(CC[C@@H](Nc6ccc7c(C8CCC(=O)NC8=O)nn(C)c7c6)[C@H](C)C5)C4)ncc3Cl)cnc2n(C)c1=O (relative stereo) [Compound 156d, 2-((6-((5-chloro-2-((6R,7R)-7-((3-(2,6-dioxopiperidin-3-yl)-1-methyl-1H-indazol-6-yl)amino)-6-methyl-2-azaspiro[3.5]nonan-2-yl)pyrimidin-4-yl)amino)-1-methyl-2-oxo-1,2-dihydro-1,8-naphthyridin-3-yl)oxy)-N-methylacetamide] | ++++ (Ymin < 30%) | < 0.01 µM

Further lines, results first:

Ymin (5 hr) | DC50 | Compound
+++ (30% ≤ Ymin < 50%) | < 0.01 µM | CNC(=O)COc1cc2cc(Nc3nc(N4CCN(C(=O)N5CCN(c6ccc7c(C8CCC(=O)NC8=O)nn(C)c7c6)CC5)CC4)ncc3Cl)cnc2n(C(C)C)c1=O (stereo not shown) [Compound 219, 2-[[6-[[5-chloro-2-[4-[4-[3-(2,6-dioxo-3-piperidyl)-1-methyl-indazol-6-yl]piperazine-1-carbonyl]piperazin-1-yl]pyrimidin-4-yl]amino]-1-isopropyl-2-oxo-1,8-naphthyridin-3-yl]oxy]-N-methyl-acetamide]
++++ (Ymin < 30%) | < 0.01 µM | CNC(=O)COc1cc2cc(Nc3nc(N4CC[C@H](CN5CCC(c6ccc7c(C8CCC(=O)NC8=O)nn(C)c7c6)CC5)[C@H](F)C4)ncc3Cl)cnc2n(C(C)C)c1=O (relative stereo) [Compound 242a, 2-((6-((5-chloro-2-((3S,4R)-4-((4-(3-(2,6-dioxopiperidin-3-yl)-1-methyl-1H-indazol-6-yl)piperidin-1-yl)methyl)-3-fluoropiperidin-1-yl)pyrimidin-4-yl)amino)-1-isopropyl-2-oxo-1,2-dihydro-1,8-naphthyridin-3-yl)oxy)-N-methylacetamide]
++++ (Ymin < 30%) | < 0.01 µM | CNC(=O)COc1cc2cc(Nc3nc(N4CCC5(CCC(CN6CCC(c7ccc8c(C9CCC(=O)NC9=O)nn(C)c8c7)CC6)CC5)CC4)ncc3Cl)cnc2n(C(C)C)c1=O (stereo not shown) [Compound 237, 2-((6-((5-chloro-2-(9-((4-(3-(2,6-dioxopiperidin-3-yl)-1-methyl-1H-indazol-6-yl)piperidin-1-yl)methyl)-3-azaspiro[5.5]undecan-3-yl)pyrimidin-4-yl)amino)-1-isopropyl-2-oxo-1,2-dihydro-1,8-naphthyridin-3-yl)oxy)-N-methylacetamide]
+++ (30% ≤ Ymin < 50%) | < 0.01 µM | CNC(=O)COc1cc2cc(Nc3nc(N4CCC(CN5CCN(c6ccc7c(C8CCC(=O)NC8=O)nn(C)c7c6)C[C@@H]5CO)CC4)ncc3Cl)cnc2n(C(C)C)c1=O (stereo partly drawn) [Compound 232b, 2-[[6-[[5-chloro-2-[4-[[(2R)-4-[3-(2,6-dioxo-3-piperidyl)-1-methyl-indazol-6-yl]-2-(hydroxymethyl)piperazin-1-yl]methyl]-1-piperidyl]pyrimidin-4-yl]amino]-1-isopropyl-2-oxo-1,8-naphthyridin-3-yl]oxy]-N-methyl-acetamide]
++++ (Ymin < 30%) | 0.01 to 0.1 µM | CNC(=O)COc1cc2cc(Nc3nc(N4CCC5(CCC(CN6CCN(c7ccc8c(C9CCC(=O)NC9=O)nn(C)c8c7)CC6)CC5)CC4)ncc3Cl)cnc2n(C(C)C)c1=O (stereo not shown) [Compound 204, 2-((6-((5-chloro-2-(9-((4-(3-(2,6-dioxopiperidin-3-yl)-1-methyl-1H-indazol-6-yl)piperazin-1-yl)methyl)-3-azaspiro[5.5]undecan-3-yl)pyrimidin-4-yl)amino)-1-isopropyl-2-oxo-1,2-dihydro-1,8-naphthyridin-3-yl)oxy)-N-methylacetamide]
++++ (Ymin < 30%) | < 0.01 µM | CNC(=O)COc1cc2cc(Nc3nc(N4CCN(C(=O)N5CCN(c6cccc7c(C8CCC(=O)NC8=O)nn(C)c67)CC5)CC4)ncc3Cl)cnc2n(C(C)C)c1=O (stereo not shown) [Compound 223, 2-[[6-[[5-chloro-2-[4-[4-[3-(2,6-dioxo-3-piperidyl)-1-methyl-indazol-7-yl]piperazine-1-carbonyl]piperazin-1-yl]pyrimidin-4-yl]amino]-1-isopropyl-2-oxo-1,8-naphthyridin-3-yl]oxy]-N-methyl-acetamide]
+++ (30% ≤ Ymin < 50%) | 0.01 to 0.1 µM | CNC(=O)COc1cc2cc(Nc3nc(N4CCC(CN5CCCN(c6ccc7c(C8CCC(=O)NC8=O)nn(C)c7c6)CC5)CC4)ncc3Cl)cnc2n(C(C)C)c1=O (stereo not shown) [Compound 235, 2-[[6-[[5-chloro-2-[4-[[4-[3-(2,6-dioxo-3-piperidyl)-1-methyl-indazol-6-yl]-1,4-diazepan-1-yl]methyl]-1-piperidyl]pyrimidin-4-yl]amino]-1-isopropyl-2-oxo-1,8-naphthyridin-3-yl]oxy]-N-methyl-acetamide]
++++ (Ymin < 30%) | 0.01 to 0.1 µM | CNC(=O)COc1cc2cc(Nc3cc(N4CCC(CN5CCN(c6cccc7c(C8CCC(=O)NC8=O)nn(C)c67)[C@H](C)C5)CC4)ncc3Cl)cnc2n(C(C)C)c1=O (stereo partly drawn) [Compound 217a, 2-[[6-[[5-chloro-2-[4-[[(3R)-4-[3-(2,6-dioxo-3-piperidyl)-1-methyl-indazol-7-yl]-3-methyl-piperazin-1-yl]methyl]-1-piperidyl]-4-pyridyl]amino]-1-isopropyl-2-oxo-1,8-naphthyridin-3-yl]oxy]-N-methyl-acetamide]
++++ (Ymin < 30%) | < 0.01 µM | CNC(=O)COc1cc2cc(Nc3nc(N4CCC5(CC4)CC(N4CCN(c6ccc7c(C8CCC(=O)NC8=O)nn(C)c7c6)CC4)C5)ncc3Cl)cnc2n(C(C)C)c1=O (stereo not shown) [Compound 229, 2-[[6-[[5-chloro-2-[2-[4-[3-(2,6-dioxo-3-piperidyl)-1-methyl-indazol-6-yl]piperazin-1-yl]-7-azaspiro[3.5]nonan-7-yl]pyrimidin-4-yl]amino]-1-isopropyl-2-oxo-1,8-naphthyridin-3-yl]oxy]-N-methyl-acetamide]
